Values after ≈ are worked out from the molar mass of the structure shown. Structures can show the parent of a compound that is named as a salt.
How the values were obtained:
[1] = tested on: Mycobacterium tuberculosis; assay: Antimycobacterial activity against Mycobacterium tuberculosis H37Ra ATCC 25177 measured on 8th to 12th day by XTT reduction menadione assay; assay type: functional; details: time 8-12 day
[2] = tested on: Mycobacterium tuberculosis; assay: Antimycobacterial activity against Mycobacterium tuberculosis H37Rv measured after 14 days by test tube dilution technique; assay type: functional; details: 336 h, time 14 day
[3] = tested on: Mycobacterium tuberculosis; assay: Antimycobacterial activity against Mycobacterium tuberculosis H37Rv measured after 21 days by test tube dilution technique; assay type: functional; details: 504 h, time 21 day
[4] = tested on: Mycobacterium tuberculosis; assay: Antimycobacterial activity against Mycobacterium tuberculosis H37Rv; assay type: functional
[5] = tested on: Mycobacterium tuberculosis; assay: Antimycobacterial activity against Mycobacterium tuberculosis H37Rv incubated for 45 days by Lowenstein-Jensen method; assay type: functional; details: 1080 h, time 45 day
[6] = tested on: Mycobacterium tuberculosis; assay: Antimycobacterial activity against Mycobacterium tuberculosis H37Rv assessed as growth inhibition at 50 ug/ml by Lowenstein-Jensen method relative to control; assay type: functional; details: read-out: GI
[7] = tested on: Mycobacterium tuberculosis; assay: Antimycobacterial activity against Mycobacterium tuberculosis; assay type: functional
[8] = tested on: Mycobacterium tuberculosis; assay: Antimycobacterial activity against Mycobacterium tuberculosis H37Ra ATCC 25177 incubated for 7 days by microplate alamar blue assay; assay type: functional; details: H37Ra ATCC 25177, 168 h, time 7 day
[9] = tested on: Mycobacterium tuberculosis; assay: Bactericidal activity against Mycobacterium tuberculosis H37Ra ATCC 25177 assessed as ratio of MBC to MIC; assay type: functional
[10] = Selectivity index, ratio of IC50 for African green monkey Vero cells to MIC for antitubercular activity against Mycobacterium tuberculosis H37Ra ATCC 25177; assay type: toxicity
[11] = tested on: Mycobacterium tuberculosis; assay: Antimycobacterial activity against Mycobacterium tuberculosis by microplate alamar blue assay; assay type: functional
[12] = tested on: Mycobacterium tuberculosis; assay: Antimycobacterial activity against Mycobacterium tuberculosis H37Rv 27294 by microplate alamar blue assay; assay type: functional
[13] = Cytotoxicity against African green monkey Vero cells after 72 hrs by cell titer glo luminescent cell viability assay; assay type: cell-based; details: chlorocebus sabaeus
[14] = tested on: Mycolicibacterium smegmatis; assay: Antimycobacterial activity against Mycobacterium smegmatis ATCC 35797 incubated for 48 hrs by agar dilution method; assay type: functional
[15] = tested on: Mycobacterium tuberculosis; assay: Antimycobacterial activity against Mycobacterium tuberculosis H37Rv ATCC27294 incubated for 7 days by microplate alamar blue assay; assay type: functional; details: H37Rv ATCC 27294, 168 h, time 7 day
[16] = tested on: Mycobacterium tuberculosis; assay: Antimycobacterial activity against Mycobacterium tuberculosis H37Rv assessed as growth inhibition at 12.5 ug/ml by BACTEC radiometric method relative to control; assay type: functional; details: read-out: GI
[17] = tested on: Mycobacterium tuberculosis; assay: Antimycobacterial activity against Mycobacterium tuberculosis H37Rv assessed as bacterial growth inhibition at 6.25 ug/ml by BACTEC MGIT method relative to control; assay type: functional
[18] = tested on: Mycobacterium tuberculosis; assay: Antimycobacterial activity against Mycobacterium tuberculosis H37Rv assessed as growth inhibition at 6.25 ug/ml by BACTEC radiometric method relative to control; assay type: functional; details: read-out: GI
[19] = tested on: Mycobacterium tuberculosis; assay: Antimycobacterial activity against Mycobacterium tuberculosis H37Rv assessed as growth inhibition at 6.25 ug/ml by microplate alamar blue assay relative to control; assay type: functional; details: read-out: GI
[20] = tested on: Mycobacterium tuberculosis; assay: Antimycobacterial activity against Mycobacterium tuberculosis H37Ra 7131 incubated for 21 days by broth dilution method; assay type: functional; details: H37Ra 7131, 504 h, time 21 day

Question: With `Cc1cc(NS(=O)(=O)c2ccc(N3C(=O)CSC3c3c(F)cccc3F)cc2)no1` (stereo not drawn) as the molecule, how does the IC90 [1] read?
Answer: 0.43 µg/mL (≈ 0.952 µM)

Question: For `CC(C)N1C(=O)CS/C1=N/NC(=O)COc1cnccn1`, which MIC [2] is on record?
Answer: > 100 µg/mL

Question: And the MIC [3]?
Answer: > 100 µg/mL

Question: With `COc1cc(-c2cc(-c3ccc(Cl)cc3)nc(NC(=O)NN3C(=O)CSC3c3ccccc3O)n2)cc(OC)c1OC` (stereo not drawn) as the molecule, how does the MIC [4] read?
Answer: 100 µg/mL (≈ 164 µM)

Question: For `CC[C@@H](CO)NCCN[C@@H](CC)CO` [ETHAMBUTOL HYDROCHLORIDE], which MIC [5] is on record?
Answer: 1.45 µM

Question: For `O=C1CSC(c2ccccc2)N1C(=O)NCCCN1c2ccccc2Sc2ccccc21` (stereo not drawn), which inhibition of growth at 50 µg/mL [6] is on record?
Answer: 75%

Question: With `Cc1nc(/N=C2\C(=O)Nc3ccccc32)sc1C(=O)NN1C(=O)CSC1c1ccc(Cl)cc1` (stereo not drawn) as the molecule, how does the MIC [7] read?
Answer: 0.78 µM (≈ 0.388 µg/mL)

Question: Which MIC [8] does the source give for `NC(=S)N/N=C/c1ccc(OC(=O)CC2SC(=O)NC2=O)c(Br)c1` (stereo not drawn) here?
Answer: 0.031 µg/mL (≈ 0.0719 µM)

Question: What about the Ratio [9] of the same molecule?
Answer: 2

Question: And the selectivity ratio [10]?
Answer: > 10

Question: With `O=C(NN1C(=O)CSC1c1cccc([N+](=O)[O-])c1)c1coc2ccc3ccccc3c12` (stereo not drawn) as the molecule, how does the MIC [11] read?
Answer: 50 µg/mL (≈ 115 µM)

Question: Which results are given for `CN1C(=O)/C(=C/c2ccccc2F)S/C1=N/NC(=O)c1ccncc1`?
Answer: IC90 [12]: 2.95 µg/mL (≈ 8.28 µM); CC50 at 72 h [13]: 15.5 µg/mL (≈ 43.6 µM)

Question: For `CC1Oc2ccccc2C=C1/C=C1\SC(=S)NC1=O` (stereo not drawn), which MIC [5] is on record?
Answer: 0.36 µM (≈ 0.104 µg/mL)

Question: For `CCC1SCC(=O)N1NC(=O)c1ccncc1` (stereo not drawn), which MIC [14] is on record?
Answer: > 100 µg/mL

Question: Which MIC [2] does the source give for `O=C(COc1cnccn1)N/N=C1/SCC(=O)N1c1ccc(Cl)cc1Cl` here?
Answer: > 100 µg/mL

Question: And the MIC [3]?
Answer: > 100 µg/mL

Question: Which MIC [4] does the source give for `COc1cc(-c2cc(-c3ccc(Cl)cc3)nc(NC(=O)NN3C(=O)CSC3c3ccccc3[N+](=O)[O-])n2)cc(OC)c1OC` (stereo not drawn) here?
Answer: 100 µg/mL (≈ 157 µM)

Question: With `COc1cccc(C2SCC(=O)N2NC(=O)c2cc(O)c(O)c(O)c2)c1O` (stereo not drawn) as the molecule, how does the MIC [15] read?
Answer: 0.79 µg/mL (≈ 2.01 µM)

Question: Which inhibition of growth at 50 µg/mL [6] does the source give for `O=C(NCCCN1c2ccccc2Sc2ccccc21)N1C(=O)/C(=C/c2cccc([N+](=O)[O-])c2)SC1c1cccc([N+](=O)[O-])c1` (stereo not drawn) here?
Answer: 83%

Question: Which MIC [2] does the source give for `O=C(COc1cnccn1)N/N=C1/SCC(=O)N1c1ccc(Cl)cc1` here?
Answer: > 100 µg/mL

Question: And the MIC [3]?
Answer: > 100 µg/mL

Question: With `Cc1ccc(N2C(=O)CSC23C(=O)N(CN2CCOCC2)c2ccc(C)cc23)cc1` (stereo not drawn) as the molecule, how does the inhibition of growth at 12.5 µg/mL [16] read?
Answer: 90%

Question: Which MIC [7] does the source give for `Cc1nc(/N=C2\C(=O)Nc3ccccc32)sc1C(=O)NN1C(=O)CSC1c1ccccc1F` (stereo not drawn) here?
Answer: 0.78 µM (≈ 0.376 µg/mL)

Question: With `O=C(NN1C(=O)CSC1c1ccc(O)cc1)c1cc(O)c(O)c(O)c1` (stereo not drawn) as the molecule, how does the MIC [15] read?
Answer: 0.79 µg/mL (≈ 2.18 µM)

Question: Which inhibition at 6.25 µg/mL [17] does the source give for `Cc1ccc(/C=C2\SC(NCCn3c(C)nc4ccccc4c3=O)=NC2=O)cc1` here?
Answer: 99%

Question: Which inhibition of growth at 50 µg/mL [6] does the source give for `O=C(NCCCN1c2ccccc2Sc2ccccc21)N1C(=O)/C(=C/c2ccc([N+](=O)[O-])cc2)SC1c1ccc([N+](=O)[O-])cc1` (stereo not drawn) here?
Answer: 82%

Question: Which MIC [2] does the source give for `O=C(COc1cnccn1)N/N=C1/SCC(=O)N1c1ccc(Cl)cc1[N+](=O)[O-]` here?
Answer: 85 µg/mL (≈ 201 µM)

Question: And the MIC [3]?
Answer: 89 µg/mL (≈ 210 µM)

Question: Which inhibition of growth at 6.25 µg/mL [18] does the source give for `COc1ccc(C(=O)Nc2ccc(C(=O)NN3C(=O)CSC3c3ccccc3)cc2)cc1` (stereo not drawn) here?
Answer: 90%

Question: Which inhibition of growth at 12.5 µg/mL [16] does the source give for `O=C(O)c1ccc(N2C(=O)CSC23C(=O)Nc2ccc(F)cc23)cc1O` (stereo not drawn) here?
Answer: 98%

Question: For `COc1cc(/C=N/NC(N)=S)ccc1OC(=O)/C=C1\SC(=O)NC1=O`, which MIC [8] is on record?
Answer: 0.031 µg/mL (≈ 0.0815 µM)

Question: What about the Ratio [9] of the same molecule?
Answer: 2

Question: And the selectivity ratio [10]?
Answer: > 10

Question: Which inhibition of growth at 6.25 µg/mL [19] does the source give for `CC1SC(c2ccc(OCc3ccccc3)cc2)N(NC(=O)C(O)(c2ccccc2)c2ccccc2)C1=O` (stereo not drawn) here?
Answer: 98%

Question: For `O=C1/C(=C/c2ccc([N+](=O)[O-])cc2)SC(c2ccc([N+](=O)[O-])cc2)N1NCCNc1ncc([N+](=O)[O-])s1` (stereo not drawn), which MIC [4] is on record?
Answer: 25 µg/mL (≈ 46 µM)

Question: With `O=C1CSC(c2ccc(OCc3ccccc3)cc2)N1NC(=O)C(O)(c1ccccc1)c1ccccc1` (stereo not drawn) as the molecule, how does the inhibition of growth at 6.25 µg/mL [19] read?
Answer: 98%

Question: With `O=C(NN1C(=O)CSC1c1ccccc1O)c1cc(O)c(O)c(O)c1` (stereo not drawn) as the molecule, how does the MIC [15] read?
Answer: 0.79 µg/mL (≈ 2.18 µM)

Question: Which MIC [20] does the source give for `N=C1S/C(=C\c2ccccc2)C(=O)N1NC(=O)c1ccncc1` here?
Answer: 12 µg/mL (≈ 37 µM)

Question: Which inhibition of growth at 50 µg/mL [6] does the source give for `COc1ccc(/C=C2\SC(=S)N(Cc3nnc(-c4cccnc4SCc4ccccc4)o3)C2=O)cc1` here?
Answer: 99%

Question: With `Cc1cc(C)c2c(c1)C1(SCC(=O)N1c1ccccc1C(=O)O)C(=O)N2` (stereo not drawn) as the molecule, how does the inhibition of growth at 12.5 µg/mL [16] read?
Answer: 90%

Question: With `CC(C)(C)N1C(=O)CS/C1=N/NC(=O)COc1cnccn1` as the molecule, how does the MIC [2] read?
Answer: > 100 µg/mL

Question: And the MIC [3]?
Answer: > 100 µg/mL

Question: For `Cc1nc(/N=C2\C(=O)Nc3ccccc32)sc1C(=O)NN1C(=O)CSC1c1ccc(F)cc1` (stereo not drawn), which MIC [7] is on record?
Answer: 0.78 µM (≈ 0.376 µg/mL)

Question: For `Cc1ccc(N2C(=O)CSC23C(=O)Nc2ccc(C)cc23)cc1` (stereo not drawn), which inhibition of growth at 12.5 µg/mL [16] is on record?
Answer: 90%

Question: For `NC(=S)N/N=C/c1ccc(OC(=O)/C=C2\SC(=O)NC2=O)c(Cl)c1`, which MIC [8] is on record?
Answer: 0.031 µg/mL (≈ 0.0806 µM)

Question: What about the Ratio [9] of the same molecule?
Answer: 2

Question: What about the selectivity ratio [10] of the same molecule?
Answer: > 10
